Assay results from US20230414568A1, “PHARMACEUTICAL COMBINATION FOR MOOD DISORDERS” (INSTITUTO NACIONAL DE PSIQUIATRÍA "RAMÓN DE LA FUENTE MUÑIZ", priority 2018, published 2023).
Marks after values point to notes of the source that are not given here.

Assays:
Swiss Webster mice [1] = assay: Forced swim test (FST) in mice; format: in vivo; details: for antidepressant-type effect, reduction of immobility time: acute single I.P. administration, ketamine 1.5 mg/kg, melatonin 4 and 16 mg/kg, alone or combined, vs control group
Description: (§1) Male mice of the “Swiss Webster” strain between 25 and 35 grams were used. All mice were placed in polyethylene boxes (8 mice per box) at a controlled temperature between 21-22° C., in a room with the dark light cycle reversed (12:12 hours, with artificial light from 10 PM to 10 A.M). The behavior evaluations of the mice were carried out between 10 AM and 3 PM. These mice were fed Purina® for rodents and water ad libitum.
A single intraperitoneal administration (I.P.) was performed in a volume of […] of body weight, as the following treatment scheme: […]
The forced swim test consists of two sessions. In the first session (pre-test), the animals are placed in a glass cylinder with the following dimensions: 20 cm in diameter by 30 cm in height. The glass cylinder is filled with water to a height of 15 cm, at 23-25° C. temperature. The mice are kept in the cylinder for 15 minutes and are naturally forced to swim. The second session takes place 24 hours after the first session and 30 minutes after administering the different pharmacological treatments. The mice are placed in the glass cylinder for 5 minutes and videotaped for further analysis. The immobility of mice in FST is defined as depressive-type behavior and is manifested by a minimal amount of movements made by the animal to stay afloat. The antidepressant effect of a drug is reflected in this test as a decrease in immobility time and an increase in swimming compared to control animals (administered with the vehicle).

[2] = test system: olfactory neuronal precursors; assay: Cell cluster formation of olfactory neuronal precursors; format: cell-based, human
Description: (§2) Cloned neuronal precursors obtained by exfoliation of the nasal cavity of a healthy subject without neuropsychiatric disease at the time of sample collection were used. These were grown according to the following process: • a) Solution 1 containing the culture medium characterized by containing one or more amino acids, one or more mineral salts, one or more vitamins, one or more growth factors of natural origin, and one or more antibiotics; • b) Solution 2 containing one or more pH regulators, and one or more calcium chelating agents, whose function is to moisten the cells that will later be propagated; • c) Solution 3 containing one or more substances that break proteins and that allow the separation between the cells by dispersing them; • d) Solution 4 containing one or more substances that allow the cells to be fixed to a glass support; • e) Solution 5 of cryopreservation containing one or more cryoprotective agents of neuronal origin cells; • f) Solution 6 of differentiation containing the maintenance solution without natural origin growth factors, and a cyclic nucleotide compound that induces differentiation; • g) Solution 7 containing one or more identifiers of specific protein molecules of the neuronal structure such that they allow to distinguish the neuronal cells from patients with neuropsychiatric diseases from healthy subjects; and • h) Solution 8 containing one or more fluorescent and/or enzymatic markers to recognize the identifiers of solution 7; up to passage 5 at a temperature of 37° C. in a 5% CO^2 atmosphere. Cells in passage 5 were incubated with increasing concentrations of ketamine or melatonin or the combination of both according to the following administration schedules:
(§3) • i. Incubation of the neuronal precursors with a vehicle (0) and ketamine for 12 hours (1), 24 hours (2), 48 hours (3) and 72 hours (4). • ii. Incubation of neuronal precursors with 10^−7 molar ketamine for 48 hours followed by incubation for 6 hours with 10^−7 molar ketamine and melatonin concentrations ranging from 10^−11 molar (7), from 10^−9 molar (8), 10^−7 molar (9) and 10^−5 molar (10), this evaluation was incorporated in a treatment with vehicle (0), with 10^−7 molar melatonin (5) and 10^−7 molar ketamine (6). Said treatment is outlined in FIG. 1. • iii. […]

Swiss Webster mice [3] = assay: Tail suspension test (TST) in mice; format: in vivo; details: N 8
Swiss Webster mice [4] = assay: Open field test (OFT) in mice; format: in vivo
Description: as §1
In order to discard nonspecific actions of any of the treatments on locomotor activity, all the treatments studied in the TST and in the FST were analyzed in the OFT. Motor activity was measured in an apparatus formed by an opaque plexiglass box (40×30×20 cm), divided into 12 equal squares ([…]). The animal was placed in a corner of the cage and its behavior was videotaped for a period of 5 minutes. An observer, who was blinded to drug treatments, recorded the total number of times the animal crossed a square during the test. A count was considered when the animal fully crossed from one plaza to the next. Any change in the number of counts is considered as an alteration in locomotor activity. The test box was carefully cleaned after each session. To avoid changes in the behavior of the animals after the first experiment, the mice were used only once per test type.
The following groups of mice were treated under a single administration schedule: with a vehicle (26), a sub-effective dose of ketamine 1.5 mg/Kg (27), 3 mg/Kg (28), 10 mg/Kg (29), 20 mg/Kg (30), 30 mg/Kg (31), plus no effective dose of melatonin and 30 minutes later they were subjected to TST.
Under the same single administration scheme; (24, 7 and 0.5 h) before starting the trial, two other independent groups were administered with melatonin 4 mg/kg (33) and 16 mg/kg (34) plus no effective dose of ketamine, with their respective control (32). In other groups, melatonin 4 mg/kg +ketamine 1.5 mg/kg (36) and melatonin 16 mg/kg+ketamine 1.5 mg/kg (37) were administered, with their respective control (35).
The following groups of mice were treated under a triple administration scheme: with a vehicle (38), three administrations of melatonin 4 mg/Kg (39), three administrations of melatonin 16 mg/Kg (40), three administrations of ketamine 1.5 mg/Kg (41), three administrations of melatonin 4 mg/Kg+one administration of ketamine 1.5 mg/Kg (42) and three administrations of melatonin 16 mg/Kg+one administration of ketamine 1.5 mg/Kg (43) and 30 minutes later they were subjected to TST.
Evaluating the effect of melatonin in combination with ketamine on the ambulatory activity of mice in the open field test (OFT) all results are expressed as the mean±SEM of 8-12 animals. Comparisons were made using a one-way ANOVA analysis, followed by the Bonferroni test: * p<0.05, ** p<0.01, *** p<0.001.

[5] = test system: olfactory neuronal precursors; assay: Formation of spines in cloned olfactory neuronal precursors; format: cell-based, human; details: ketamine 10^−7 M
Description: as §2, §3
Once the cells were fixed, they were processed to stain them with specific markers that recognize the spines, which are made up of spinophilin and filamentous actin (FIG. 2A and 2B). […] The spines were counted in 10 fields chosen at random and normalized between the total cells number present in each field (Table 1). […]

[6] = single administration, melatonin 4 mg/kg (group 33)
[7] = single administration, melatonin 16 mg/kg (group 34)
[8] = triple administration, melatonin 4 mg/kg (group 39)
[9] = triple administration, melatonin 16 mg/kg (group 40)
[10] = single administration, ketamine 1.5 mg/kg (group 27)
[11] = single administration, ketamine 3 mg/kg (group 28)
[12] = single administration, ketamine 10 mg/kg (group 29)
[13] = single administration, ketamine 20 mg/kg (group 30)
[14] = single administration, ketamine 30 mg/kg (group 31)
[15] = triple administration, ketamine 1.5 mg/kg (group 41)

Compound: CNCCC(Oc1ccc(C(F)(F)F)cc1)c1ccccc1 (centres unmarked) [Fluoxetine, fluoxetine]
- Immobility time (Swiss Webster mice [1]; fluoxetine 5 mg/kg I.P. (group 19)): 49.76 ± 4.65 s
- Immobility time (Swiss Webster mice [1]; fluoxetine 10 mg/kg I.P. (group 20)): 35.25 ± 3.88 s

Compound: COc1ccc2[nH]cc(CCNC(C)=O)c2c1 [Melatonin, N-[2-(5-methoxy-1H-indol-3-yl)ethyl] acetamide]
- cell cluster ([2]; triple administration: three administrations of melatonin 10^−7 M (group 12)): 2.9 ± 0.9%
- cell cluster ([2]; vehicle pre-treatment, then melatonin 10^−7 M (group 5)): 7.61 ± 0.59%
- antidepressant-type effect, reduction of immobility time (Swiss Webster mice [1]): ineffective
- Immobility time (Swiss Webster mice [1]; melatonin 4 mg/kg I.P. (group 21)): 41.21 ± 7.29 s
- Immobility time (Swiss Webster mice [1]; melatonin 16 mg/kg I.P. (group 22)): 17.38 ± 2.51 s
- Count Number/5 min ± mean standard error (Swiss Webster mice [3]; melatonin 4 mg/kg): 41.125 ± 2.489
- Count Number/5 min ± mean standard error (Swiss Webster mice [3]; melatonin 16 mg/kg): 38.500 ± 3.746
- Count number/5 min (Swiss Webster mice [4]; [6]): 41.12 ± 2.48
- Stop number/5 min (Swiss Webster mice [4]; [6]): 25.37 ± 2.18
- Count number/5 min (Swiss Webster mice [4]; [7]): 38.50 ± 3.74
- Stop number/5 min (Swiss Webster mice [4]; [7]): 25.12 ± 2.36
- Count number/5 min (Swiss Webster mice [4]; [8]): 47.200 ± 5.20
- Stop number/5 min (Swiss Webster mice [4]; [8]): 29.111 ± 2.16
- Count number/5 min (Swiss Webster mice [4]; [9]): 42.625 ± 5.97
- Stop number/5 min (Swiss Webster mice [4]; [9]): 26.375 ± 4.60

Compound: CNC1(c2ccccc2Cl)CCCCC1=O (centres unmarked) [Ketamine, 2-(2-chlorophenyl)-2-(methylamino) cyclohexanone]
- cell cluster ([2]; ketamine 10^−7 M pre-treatment 48 h, then vehicle (group 6)): 7.12 ± 0.92%
- cell cluster ([2]; two vehicle administrations + one administration of ketamine 10^−7 M (group 13)): 3.1 ± 1.0%
- antidepressant-type effect, reduction of immobility time (Swiss Webster mice [1]): ineffective
- Spines ([5]; incubation 12 h (group 1)): 10.25 ± 1.89%
- Spines ([5]; incubation 24 h (group 2)): 22.65 ± 2.16%
- Spines ([5]; incubation 48 h (group 3)): 45.31 ± 4.26%
- Spines ([5]; incubation 72 h (group 4)): 45.31 ± 3.88%
- Count Number/5 min ± mean standard error (Swiss Webster mice [3]; ketamine 1.5 mg/kg): 40.12 ± 3.23
- Count Number/5 min ± mean standard error (Swiss Webster mice [3]; ketamine 3 mg/kg): 45.25 ± 4.29
- Count Number/5 min ± mean standard error (Swiss Webster mice [3]; ketamine 10 mg/kg): 56.34 ± 4.36
- ambulatory activity in OFT (Swiss Webster mice [4]; highest doses of ketamine (10 30 mg/kg), did not reach statistical significance, F(3,31)=2.99, p=0.047): modified ambulatory activity
- ambulatory activity in OFT (Swiss Webster mice [4]; ketamine 1.5, 3.0, 10.0 and 20.0 mg/kg, F(2,23)=0.545, p=0.589): did not produce changes in the ambulatory activity
- Count number/5 min (Swiss Webster mice [4]; [10]): 40.12 ± 3.23
- Stop number/5 min (Swiss Webster mice [4]; [10]): 28.62 ± 3.15
- Count number/5 min (Swiss Webster mice [4]; [11]): 45.25 ± 4.29
- Stop number/5 min (Swiss Webster mice [4]; [11]): 28.25 ± 2.66
- Count number/5 min (Swiss Webster mice [4]; [12]): 56.62 ± 4.36**
- Stop number/5 min (Swiss Webster mice [4]; [12]): 45.25 ± 2.85**
- Count number/5 min (Swiss Webster mice [4]; [13]): 56.00 ± 3.62**
- Stop number/5 min (Swiss Webster mice [4]; [13]): 45.50 ± 3.70
- Count number/5 min (Swiss Webster mice [4]; [14]): 60.12 ± 1.60***
- Stop number/5 min (Swiss Webster mice [4]; [14]): 45.37 ± 1.71
- Count number/5 min (Swiss Webster mice [4]; [15]): 41.400 ± 3.97
- Stop number/5 min (Swiss Webster mice [4]; [15]): 28.000 ± 2.53
